Target: cloned human glucagon receptor (Homo sapiens, UniProt P47871)
Test: Glucagon Receptor (hGlucR) Binding Assay
Experimental: This plasmid DNA was transfected into 293 HEK cells and selected with 200 ug/ml Hygromycin.
Crude plasma membranes are prepared using cells from suspension culture. The cells are lysed on ice in hypotonic buffer containing 25 mM Tris HCL, pH 7.5, 1 mM MgCl2, DNAse1, 20 u/ml, and Roche Complete Inhibitors-without EDTA. The cell suspension is homogenized with a glass dounce homogenizer using a Teflon pestle for 25 strokes. The homogenate is centrifuged at 4 degrees C. at 1800×g for 15 mins. The supernate is collected and the pellet is resuspended in hypotonic buffer and rehomogenized. The mixture is centrifuged at 1800×g for 15 mins. The second supernate is combined with the first supernate. The combined supernates are recentrifuged at 1800×g for 15 mins to clarify. The clarified supernate is transferred to high speed tubes and centrifuged at 25000×g for 30 minutes at 4 degrees C. The membrane pellet is resuspended in homogenization buffer and stored as frozen aliquots at −80 degree C. freezer until needed.
The specific activity is 2200 Ci/mmol.
The binding buffer contains 25 mM Hepes, pH 7.4, 2.5 mM CaCl2, 1 mM MgCl2, 0.1% fatty acid free BSA, (ICN), 0.003% tween-20, and Roche Complete Inhibitors without EDTA. […] Test compounds are dissolved in DMSO and serially diluted in DMSO. […] Plates are read with a MicroBeta after 14 hours of settling time at room temp. […]

Sequence of cloned human glucagon receptor (P47871 26-477): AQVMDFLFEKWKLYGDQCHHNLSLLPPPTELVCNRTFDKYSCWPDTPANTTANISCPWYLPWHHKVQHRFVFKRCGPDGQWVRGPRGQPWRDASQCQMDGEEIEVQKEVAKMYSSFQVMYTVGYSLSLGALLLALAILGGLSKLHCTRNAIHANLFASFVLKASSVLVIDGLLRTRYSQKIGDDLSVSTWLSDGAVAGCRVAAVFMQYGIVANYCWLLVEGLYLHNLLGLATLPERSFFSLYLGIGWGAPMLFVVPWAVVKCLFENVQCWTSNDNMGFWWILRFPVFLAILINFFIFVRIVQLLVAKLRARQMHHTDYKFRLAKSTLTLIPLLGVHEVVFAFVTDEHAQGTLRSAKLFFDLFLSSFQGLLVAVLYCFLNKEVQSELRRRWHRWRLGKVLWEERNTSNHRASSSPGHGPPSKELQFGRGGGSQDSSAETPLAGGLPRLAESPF

Structure (SMILES) | Ki
CC(C)CC(Oc1ccc(-c2ccc(C(F)(F)F)cc2)cc1)c1ccc(C(=O)NCCC(=O)O)s1 (centres unmarked) | 390 nM
CC(C)CC(Oc1ccc(-c2ccc(C(C)(C)C)cc2)nc1)c1ccc(C(=O)NCCC(=O)O)s1 (centres unmarked) | 296 nM
